Experimental data: patent publication US8217063B2, “Lactam-substituted dicarboxylic acids and use thereof” (Bayer Intellectual Property GmbH, priority 2007, dated 2012)

Legend:
saphenous artery = assay: Vasorelaxant effect in vitro (phenylephrine-contracted artery rings); set-up: species or system Rabbits; settings: Oryctolagus cuniculus; rabbit saphenous artery rings, contraction induced by phenylephrine
Protocol: B-1. Vasorelaxant Effect In Vitro:
Rabbits are anesthetized and sacrificed by intravenous injection of thiopental sodium (about 50 mg/kg) and exsanguinated. The saphenous artery is removed and divided into rings 3 mm wide. The rings are mounted singly on in each case a pair of triangular hooks open at the end and made of 0.3 mm-thick special wire (Remanium®). Each ring is placed under an initial tension in 5 ml organ baths with Krebs-Henseleit solution which is at 37° C., is gassed with carbogen and has the following composition: NaCl 119 mM; KCl 4.8 mM; CaCl2×2H2O 1 mM; MgSO4×7H2O 1.4 mM; KH2PO4 1.2 mM; NaHCO3 25 mM; glucose 10 mM; bovine serum albumin 0.001%. The force of contraction is detected with Statham UC2 cells, amplified and digitized via A/D converters (DAS-1802 HC, Keithley Instruments, Munich) and recorded in parallel on chart recorders. Contractions are induced by addition of phenylephrine.
After several (generally 4) control cycles, the substance to be investigated is added in each further run in increasing dosage, and the height of the contraction achieved under the influence of the test substance is compared with the height of the contraction reached in the last preceding run. The concentration necessary to reduce the contraction reached in the preceding control by 50% is calculated from this (IC50). The standard application volume is 5 μl. The proportion of DMSO in the bath solution corresponds to 0.1%.

Heme-containing sGC = target: T1, Heme-containing sGC (Rattus norvegicus, UniProt P20595); assay: Stimulation of recombinant soluble guanylate cyclase (sGC) in vitro, heme-containing enzyme; assay type: biochemical
T1 construct: made in house; host or cells: baculovirus/Sf9
T1 sequence (P20595 1-619): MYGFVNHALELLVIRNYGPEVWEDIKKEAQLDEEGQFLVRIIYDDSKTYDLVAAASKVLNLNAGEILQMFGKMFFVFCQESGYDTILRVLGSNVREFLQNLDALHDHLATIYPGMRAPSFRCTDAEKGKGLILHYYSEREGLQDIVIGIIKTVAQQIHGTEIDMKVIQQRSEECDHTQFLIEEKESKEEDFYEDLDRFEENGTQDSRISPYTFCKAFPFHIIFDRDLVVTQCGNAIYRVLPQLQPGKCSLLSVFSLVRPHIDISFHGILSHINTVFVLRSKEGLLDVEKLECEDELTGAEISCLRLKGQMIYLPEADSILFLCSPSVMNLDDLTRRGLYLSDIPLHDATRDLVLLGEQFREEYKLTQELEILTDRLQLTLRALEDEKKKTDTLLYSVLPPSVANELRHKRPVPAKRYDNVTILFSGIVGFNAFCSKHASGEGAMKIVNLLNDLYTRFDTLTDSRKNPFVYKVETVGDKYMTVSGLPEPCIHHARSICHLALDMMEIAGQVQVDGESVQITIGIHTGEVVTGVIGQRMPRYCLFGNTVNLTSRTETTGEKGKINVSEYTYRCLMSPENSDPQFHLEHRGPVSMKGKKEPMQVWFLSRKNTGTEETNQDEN
T1 sequence (P19686 1-690 partner): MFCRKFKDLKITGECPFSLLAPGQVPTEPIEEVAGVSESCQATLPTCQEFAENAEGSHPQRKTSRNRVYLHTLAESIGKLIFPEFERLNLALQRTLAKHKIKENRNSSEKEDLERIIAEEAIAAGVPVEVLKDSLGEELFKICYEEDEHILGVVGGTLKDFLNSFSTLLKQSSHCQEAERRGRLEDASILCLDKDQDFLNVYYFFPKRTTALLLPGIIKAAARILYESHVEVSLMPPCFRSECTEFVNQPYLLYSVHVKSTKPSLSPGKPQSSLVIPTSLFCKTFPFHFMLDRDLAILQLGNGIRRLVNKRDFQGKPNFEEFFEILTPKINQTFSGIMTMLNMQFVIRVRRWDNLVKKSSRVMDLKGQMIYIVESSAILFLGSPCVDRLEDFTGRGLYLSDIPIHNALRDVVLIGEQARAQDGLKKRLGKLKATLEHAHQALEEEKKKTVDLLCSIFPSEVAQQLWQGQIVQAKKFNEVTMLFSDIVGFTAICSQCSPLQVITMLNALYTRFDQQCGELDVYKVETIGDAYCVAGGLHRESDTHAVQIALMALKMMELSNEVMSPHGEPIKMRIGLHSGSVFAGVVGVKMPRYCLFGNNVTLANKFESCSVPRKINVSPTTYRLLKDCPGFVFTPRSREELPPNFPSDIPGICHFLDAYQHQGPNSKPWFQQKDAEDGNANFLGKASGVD
From the text: (§1) B-2. Stimulation of Recombinant Soluble Guanylate Cyclase (sGC) In Vitro:
Hoenicka, E. M. Becker, H. Apeler, T. Sirichoke, H. Schroeder, R. Gerzer and J.-P. Stasch, “Purified soluble guanylyl cyclase expressed in a baculovirus/Sf9 system: Stimulation by YC-1, nitric oxide, and carbon oxide”, J. Mol. Med. 77 (1999), 14-23. The heme-free guanylate cyclase is obtained by adding Tween 20 to the sample buffer (0.5% in the final concentration).
(§2) The activation of sGC by a test substance is reported as n-fold stimulation of the basal activity.

Heme-free sGC = target: T2, Heme-free sGC (Rattus norvegicus, UniProt P20595); assay: Stimulation of recombinant soluble guanylate cyclase (sGC) in vitro, heme-free enzyme; assay type: biochemical; settings: heme-free sGC (0.5% Tween 20)
T2 construct: made in house; host or cells: baculovirus/Sf9
T2 sequence (P20595 1-619): T1 sequence (P20595 1-619)
T2 sequence (P19686 1-690 partner): T1 sequence (P19686 1-690 partner)
Protocol: as §1
Investigations on the stimulation of recombinant soluble guanylate cyclase (sGC) by the compounds according to the invention with and without sodium nitroprusside, and with and without the heme-dependent sGC inhibitor 1H-1,2,4-oxadiazole-(4,3a)-quinoxalin-1-one (ODQ) are carried out by the method described in detail in the following reference: M. Hoenicka, E. M. Becker, H. Apeler, T. Sirichoke, H. Schroeder, R. Gerzer and J.-P. Stasch, “Purified soluble guanylyl cyclase expressed in a baculovirus/Sf9 system: Stimulation by YC-1, nitric oxide, and […]”, J. Mol. Med. 77 (1999), 14-23. The heme-free guanylate cyclase is obtained by adding Tween 20 to the sample buffer (0.5% in the final concentration).
as §2

[1] = target: T3, recombinant guanylate cyclase reporter cell line (Rattus norvegicus, UniProt P20595); assay: sGC-activating activity in the CHO reporter cell in vitro; assay type: cell-based
T3 construct: expressed in transfected cells; host or cells: CHO
T3 sequence (P20595 1-619): T1 sequence (P20595 1-619)
T3 sequence (P19686 1-690 partner): T1 sequence (P19686 1-690 partner)
Protocol: B-3. Action at Recombinant Guanylate Cyclase Reporter Cell Lines
The cellular action of the compounds according to the invention is determined using a recombinant guanylate cyclase reporter cell line, as described in F. Wunder et al., Anal. Biochem. 339, 104-112 (2005).

O=C(O)c1ccc(CCC(/C=C/c2ccccc2OCCCN2CCCC2=O)Cc2ccc(C(=O)O)cc2)cc1 (single isomer, unassigned) [Example 3, 4-[(4E)-3-(4-Carboxybenzyl)-5-{2-[3-(2-oxopyrrolidin-1-yl)propoxy]phenyl}pent-4-en-1-yl]-benzoic acid]
IC50 (saphenous artery): 52 nM | Stimulation (n-fold) of sGC, +0.1 μM DEA/NO (Heme-containing sGC; 0.01 μM Example 3): 23.3 n-fold | Stimulation (n-fold) of sGC, +0.1 μM DEA/NO (Heme-containing sGC; 0.1 μM Example 3): 34.7 n-fold | Stimulation (n-fold) of sGC, +0.1 μM DEA/NO (Heme-containing sGC; 1 μM Example 3): 41.6 n-fold | Stimulation (n-fold) of sGC, +0.1 μM DEA/NO (Heme-containing sGC; 10 μM Example 3): 40.0 n-fold | Stimulation (n-fold) of sGC, +10 μM ODQ (Heme-containing sGC; 0.01 μM Example 3): 35.1 n-fold | Stimulation (n-fold) of sGC, +10 μM ODQ (Heme-containing sGC; 0.1 μM Example 3): 98.0 n-fold | Stimulation (n-fold) of sGC, +10 μM ODQ (Heme-containing sGC; 1 μM Example 3): 124 n-fold | Stimulation (n-fold) of sGC, +10 μM ODQ (Heme-containing sGC; 10 μM Example 3): 134 n-fold | Stimulation (n-fold) of sGC, Basal (Heme-containing sGC; 0.01 μM Example 3): 6.1 n-fold | Stimulation (n-fold) of sGC, Basal (Heme-containing sGC; 0.1 μM Example 3): 11.6 n-fold | Stimulation (n-fold) of sGC, Basal (Heme-containing sGC; 1 μM Example 3): 16.0 n-fold | Stimulation (n-fold) of sGC, Basal (Heme-containing sGC; 10 μM Example 3): 18.9 n-fold | Synergy with the NO donor DEA/NO on sGC (Heme-containing sGC; combination with DEA/NO): no synergistic effect | Stimulation (n-fold) of heme-free sGC, Basal (Heme-free sGC; 0.01 μM Example 3): 9.9 n-fold | Stimulation (n-fold) of heme-free sGC, Basal (Heme-free sGC; 0.1 μM Example 3): 35.2 n-fold | Stimulation (n-fold) of heme-free sGC, Basal (Heme-free sGC; 1 μM Example 3): 69.7 n-fold | Stimulation (n-fold) of heme-free sGC, Basal (Heme-free sGC; 10 μM Example 3): 74.6 n-fold | MEC (minimum effective concentration) [1]: 1 nM
